The values that follow are results of earlier work, collected in patent US10695734B2, “Microcapsule comprising a polyester-urethane shell and a hydrophilic core material” (BASF SE, priority 2015, dated 2020).

Structures can show the parent of a compound that is named as a salt.

The conditions of the series: at 20° C.

As for `COc1c(Cl)ccc(Cl)c1C(=O)O` [dicamba sodium salt], the water solubility is more than 100 mg/mL. As to `O=C(O)CNCP(=O)(O)O` [glyphosate potassium salt], the water solubility was more than 500 mg/mL.
